Activity calls are given as the source filed them. The calls are words filed in the database; no cut-off is given here.
How the values were obtained:
Mus musculus [1] = species on record: Mus musculus; experiment: Time of peak effect was determined for activity in MES; type: functional; set-up: unit not given here
Mus musculus [2] = species on record: Mus musculus; experiment: Time of peak effect toxicity against maximal electroshock induced seizures; type: organism-based; conditions: in vivo
Mus musculus [3] = species on record: Mus musculus; experiment: Time of peak effect activity against maximal electroshock induced seizures; type: functional
Mus musculus [4] = species on record: Mus musculus; experiment: Median hypnotic dose by loss of righting reflex.; type: functional
Rattus norvegicus [5] = experiment: The cytotoxicity after intraperitoneal administration in rat.; type: functional; conditions: ip
Mus musculus [6] = species on record: Mus musculus; experiment: Time of peak effect was determined for toxicity; type: functional
[7] = Median lethal dose was measured after 24 hr.; type: organism-based; conditions: mouse, in vivo
[8] = The cytotoxicity after intraperitoneal administration; type: organism-based; conditions: mouse, in vivo, ip
Mus musculus [9] = experiment: Anticonvulsant activity against maximal electroshock induced seizures (MES) after 0.5 h; Not active up to 300 mg/kg; type: functional, organism-based; set-up: dose 300 mg/kg
Mus musculus [10] = experiment: Anticonvulsant activity against subcutaneous administered Metrazol induced seizures (scMET) after 4 hr at 300 mg/kg; Active; type: functional, organism-based; set-up: dose 300 mg/kg
Mus musculus [11] = experiment: Anticonvulsant activity against subcutaneous administered Metrazol induced seizures (scMET) after 0.5 hr at 300 mg/kg; Active; type: functional, organism-based; set-up: dose 300 mg/kg
Mus musculus [12] = experiment: The effective dose of compound was tested against subcutaneous administered Metrazol induced seizures after intraperitoneal administration; type: functional
Mus musculus [13] = experiment: The Neurologic toxicity by measuring rotarod test after 4 hr; No toxicity up to 300 mg/kg; type: organism-based; set-up: dose 300 mg/kg; conditions: in vivo
Mus musculus [14] = experiment: The effective dose of compound was tested against maximal electroshock induced seizures after intraperitoneal administration; Not active up to 300 mg/kg; type: functional, organism-based; set-up: dose 300 mg/kg
Mus musculus [15] = experiment: Anticonvulsant activity against maximal electroshock induced seizures after 4 hr; Not active up to 300 mg/kg.; type: functional, organism-based; set-up: dose 300 mg/kg
Mus musculus [16] = experiment: The Neurologic toxicity by measuring rotarod test after 0.5 h; No toxicity up to 300 mg/kg; type: organism-based; set-up: dose 300 mg/kg; conditions: in vivo
[17] = Protective index was calculated (TD50/ED50) in scMet assay in mice after intraperitoneal administration; type: functional
Mus musculus [18] = experiment: Anticonvulsant activity against subcutaneous administered Metrazol induced seizures (scMET) after 0.5 hr; Not active up to 300 mg/kg; type: functional, organism-based; set-up: dose 300 mg/kg
Mus musculus [19] = experiment: The Neurologic toxicity by measuring rotarod after 4 hr; No toxicity up to 300 mg/kg; type: organism-based; set-up: dose 300 mg/kg; conditions: in vivo
Rattus norvegicus [20] = experiment: The effective dose of compound was tested against subcutaneous administered Metrazol induced seizures in rat; Not effective; type: functional, organism-based
Mus musculus [21] = experiment: The effective dose of compound was tested against subcutaneous administered Metrazol induced seizures after intraperitoneal administration; Not effective; type: functional, organism-based
Mus musculus [22] = species on record: Mus musculus; experiment: Median lethal dose was measured after 24 hr; type: functional
in vivo = conditions: rat, ip
Rattus norvegicus [23] = experiment: The effective dose of compound was tested against maximal electroshock induced seizures after oral administration in rat; type: functional
Mus musculus [24] = species on record: Mus musculus; experiment: Median hypnotic dose by loss of righting reflex; type: functional
Mus musculus [25] = experiment: The compound was tested for anticonvulsant activity against (subcutaneous administered) bicuculline induced seizures after intraperitoneal administration; Protected at 100 mg/ kg; type: functional, organism-based; set-up: dose 100 mg/ kg
Mus musculus [26] = experiment: The compound was tested for anticonvulsant activity against (subcutaneous administered) Metrazol induced seizures after intraperitoneal administration; No protection up to 100 mg/kg; type: functional, organism-based; set-up: dose 100 mg/kg
Mus musculus [27] = experiment: Anticonvulsant activity against maximal electroshock induced seizures (MES) after 4 hr at 300 mg/kg; Active; type: functional, organism-based; set-up: dose 300 mg/kg
Rattus norvegicus [28] = experiment: The effective dose of compound (given orally) was tested against subcutaneous administered Metrazol induced seizures in rat; type: functional
Mus musculus [29] = experiment: The effective dose of compound (given orally) was tested against subcutaneous administered Metrazol induced seizures in mice; type: functional
Mus musculus [30] = experiment: The compound was tested for anticonvulsant activity against (subcutaneous administered) bicuculline induced seizures after intraperitoneal administration; type: functional
Mus musculus [31] = experiment: The compound was tested for anticonvulsant activity against (subcutaneous administered) Metrazol induced seizures after intraperitoneal administration; type: functional
Mus musculus [32] = experiment: The effective dose of compound was tested against subcutaneous administered Metrazol induced seizures after intraperitoneal administration.; type: functional
[33] = Protective index was calculated (TD50/ED50) in scMET assay in mice after oral administration; type: functional
[34] = Protective index was calculated (TD50/ED50) in scMET assay in mice after intraperitoneal administration; type: functional
[35] = The cytotoxicity (given orally) […] in rat; type: organism-based; conditions: in vivo
[36] = Ratio of LD50/HD50 was determined; type: functional
Mus musculus [37] = experiment: The effective dose of compound was tested against maximal electroshock induced seizures after oral administration in mice; type: functional
Mus musculus [38] = experiment: Anticonvulsant activity against maximal electroshock induced seizures (MES) after 0.5 hr at 300 mg/kg; Active; type: functional, organism-based; set-up: dose 300 mg/kg
[39] = Protective index was calculated (TD50/ED50) in MES assay in rat after oral administration; type: functional
Mus musculus [40] = experiment: Anticonvulsant activity against subcutaneous picrotoxin induced seizures after intraperitoneal administration; type: functional
[41] = Protective index was calculated (TD50/ED50) in MES assay in mice after oral administration; type: functional
Mus musculus [42] = experiment: Anticonvulsant activity against subcutaneous administered Metrazol induced seizures (scMET) after 0.5 hr at 30 mg/kg; Active; type: functional, organism-based; set-up: dose 30 mg/kg
Mus musculus [43] = experiment: The compound was tested for anticonvulsant activity against (subcutaneous administered) strychnine induced seizures after intraperitoneal administration; type: functional
Mus musculus [44] = experiment: The effective dose of compound was tested against maximal electroshock induced seizures after intraperitoneal administration; type: functional; conditions: ip
[45] = Protective index was calculated (TD50/ED50) in scMET assay in rat after oral administration; type: functional
[46] = The cytotoxicity (given orally) […] in mice; type: organism-based; conditions: mouse, in vivo
[47] = Protective index was calculated (TD50/ED50) in MES assay in mice after intraperitoneal administration; type: functional

With CCC1(c2ccccc2)C(=O)NC(=O)NC1=O [PHENOBARBITAL] the TPE (Mus musculus [1]) was 1, the Time of peak effect (Mus musculus [2]) was 0.5 h and the Activity (Mus musculus [3]) was 1 h. The HD50 (Mus musculus [4]) was 135.45 mg/kg, the ED50 (Rattus norvegicus [5]) was 61.1 mg/kg and the TPE (Mus musculus [6]) was 0.5. It also gave an LD50 at 24 h [7] of 265 mg/kg.

In the case of O=C1CCC(Cc2ccc(I)cc2)C(=O)N1 (centres undefined), the TD50 [8] is reported as over 1050 mg/kg, the Activity (Mus musculus [9]) is reported as “inactive” and the TPE (Mus musculus [1]) is reported as 1. For the same compound, the Activity (Mus musculus [10]) was “Active”, the Activity (Mus musculus [11]) was “Active” and the ED50 (Mus musculus [12]) was 87.2 mg/kg. The Toxicity (Mus musculus [13]) was “No toxicity up to 300 mg/kg”, the ED50 (Mus musculus [14]) was “Not active up to 300 mg/kg” and the Activity (Mus musculus [15]) was “inactive”. For the same compound, the Toxicity (Mus musculus [16]) was “No toxicity up to 300 mg/kg” and the Ratio [17] was over 12.04.

With COc1ccc(CC2CCC(=O)NC2=O)cc1 (centres undefined) the Activity (Mus musculus [18]) was “inactive”, the Activity (Mus musculus [9]) was “inactive” and the Activity (Mus musculus [10]) was “Active”. The Toxicity (Mus musculus [19]) was “No toxicity up to 300 mg/kg”, the Activity (Mus musculus [15]) was “inactive” and the Toxicity (Mus musculus [16]) was “No toxicity up to 300 mg/kg”.

In the case of NC(=O)N1c2ccccc2C=Cc2ccccc21 [CARBAMAZEPINE], the ED50 (Rattus norvegicus [20]) is reported as “inactive”, the ED50 (Mus musculus [21]) is reported as “inactive” and the LD50 (Mus musculus [22]) is reported as 629 mg/kg. For the same compound, the TD50 (in vivo) was 813 mg/kg, the ED50 (Rattus norvegicus [23]) was 8.5 mg/kg and the TPE (Mus musculus [2]) was 0.25. For the same compound, the HD50 (Mus musculus [24]) was 172.24 mg/kg, the ED50 (Mus musculus [25]) was “Active” and the TPE (Mus musculus [3]) was 0.25. The ED50 (Mus musculus [26]) was “inactive”.

With O=C1CCC(Cc2ccc(Cl)cc2)C(=O)N1 (centres undefined) the Activity (Mus musculus [27]) was “Active”, the TD50 [8] was 1220 mg/kg and the ED50 (Rattus norvegicus [28]) was 36.4 mg/kg. It also gave an LD50 (Mus musculus [22]) of over 2400 mg/kg, an ED50 (Mus musculus [29]) of 274 mg/kg and an ED50 (Mus musculus [30]) of 249 mg/kg. The ED50 (Mus musculus [31]) was 72.8 mg/kg, the ED50 (Mus musculus [32]) was 72.8 mg/kg and the Ratio [33] was over 10.95. For the same compound, the ED50 (Rattus norvegicus [23]) was 58.3 mg/kg, the TPE (Mus musculus [2]) was 1 and the Activity (Mus musculus [10]) was “Active”. For the same compound, the Ratio [34] was 16.82, the TD50 [35] was 68.2 mg/kg and the Ratio [36] was over 1.87. The ED50 (Mus musculus [37]) was 579 mg/kg, the HD50 (Mus musculus [24]) was 1282.47 mg/kg and the Activity (Mus musculus [38]) was “Active”. The Toxicity (Mus musculus [13]) was “No toxicity up to 300 mg/kg”, the TPE (Mus musculus [3]) was 0.5 and the Ratio [39] was 1.17. The ED50 (Mus musculus [40]) was 158 mg/kg, the Ratio [41] was over 5.18 and the Activity (Mus musculus [42]) was “Active”. The ED50 (Mus musculus [43]) was 232 mg/kg, the ED50 (Mus musculus [44]) was 137 mg/kg and the Ratio [45] was 1.87. The TD50 [46] was over 3000 mg/kg, the Toxicity (Mus musculus [16]) was “No toxicity up to 300 mg/kg” and the Ratio [47] was 8.95.

— ChEMBL document CHEMBL1124722, “Synthesis and anticonvulsant activity of 2-benzylglutarimides” (J Med Chem, 1990)
